For one assay, the system named is 5XFAD AD-Tg mice. In words: Radial arm water maze (RAWM). Type of assay: in vivo, mouse. Here is the method: The radial-arm water maze (RAWM) was used to test spatial learning and memory, as was previously described in detail (Alamed et al, 2006). Briefly, six stainless steel inserts were placed in the tank, forming six swim arms radiating from an open central area. The escape platform was located at the end of one arm (the goal arm), 1.5 cm below the water surface, in a pool 1.1 m in diameter. The water temperature was kept between 21-22° C. Water was made opaque with milk powder. Within the testing room, only distal visual shape and object cues were available to the mice to aid in location of the submerged platform. The goal arm location remained constant for a given mouse. On day 1, mice were trained for 15 trials (spaced over 3 h), with trials alternating between a visible and hidden platform, and the last 4 trails with hidden platform only. On day 2, mice were trained for 15 trials with the hidden platform. Entry into an incorrect arm, or failure to select an arm within 15 sec, was scored as an error. Spatial learning and memory were measured by counting the number of arm entry errors or the escape latency of the mice on each trial. Training data were analyzed as the mean errors or escape latency, for training blocks of three consecutive trials.
At 10 months of age, 5XFAD Alzheimer's' disease (AD) transgenic (Tg) mice were injected i.p. with either 250 ug of anti-PD1 (RMP1-14; #BE0146; Bioxcell Lifesciences Pvt. LTD.) or control IgG (IgG2a; #BE0089; Bioxcell Lifesciences Pvt. LTD.) antibodies, on day 1 and day 4 of the experiment, and were examined 3 weeks after (schematically depicted in FIG. 11A) for their cognitive performance by radial arm water maze (RAWM) spatial learning and memory task, as was previously described in detail (Alamed et al, 2006). Briefly, on day 1 of the RAWM task, mice were trained for 15 trials (spaced over 3 h), with trials alternating between a visible and hidden platform, and the last 4 trails with hidden platform only. On day 2, mice were trained for 15 trials with the hidden platform. Entry into an incorrect arm, or failure to select an arm within 15 sec, was scored as an error. Spatial learning and memory were measured by counting the number of arm entry errors or the escape latency of the mice on each trial. Age matched untreated WT and AD-Tg mice were used as controls.

In assay [1] the test system is CD11bhigh/CD45high mo-MΦ, CD4+ T cells, Foxp3+ Tregs in the brain. The experiment in a line: Flow cytometry of brain parenchyma / hippocampus. Type of assay: in vivo, mouse. The procedure: Mice were transcardially perfused with PBS, and tissues were treated as previously described (Baruch et al, 2013). Brains were dissected and the different brain regions were removed under a dissecting microscope (Stemi DV4; Zeiss) in PBS, and tissues were dissociated using the gentleMACS™ dissociator (Miltenyi Biotec). Choroid plexus tissues were isolated from the lateral, third and fourth ventricles of the brain, incubated at 37° C. for 45 min in PBS (with Ca^2+/Mg^2+) containing 400 U/ml collagenase type IV (Worthington Biochemical Corporation), and then manually homogenized by pipetting. Spleens were mashed with the plunger of a syringe and treated with ACK (ammonium chloride potassium) lysing buffer to remove erythrocytes. In all cases, samples were stained according to the manufacturers' protocols. All samples were filtered through a 70 μm nylon mesh, and blocked with anti-Fc CD16/32 (1:100; BD Biosciences). For intracellular staining of IFN-γ, the cells were incubated with […] (10 ng/ml; Sigma-Aldrich) and ionomycin (250 ng/ml; Sigma-Aldrich) for 6 h, and Brefeldin-A (10 μg/ml; Sigma-Aldrich) was added for the last 4 h. Intracellular labeling of cytokines was done with BD Cytofix/Cytoperm™ Plus fixation/permeabilization kit (cat. no. 555028). For Treg staining, an eBioscience FoxP3 staining buffer set (cat. no. 00-5523-00) was used. The following fluorochrome-labeled monoclonal antibodies were purchased from BD Pharmingen, BioLegend, R&D Systems, or eBiosciences, and used according to the manufacturers' protocols: PE or Alexa Fluor 450-conjugated anti-CD4; PE-conjugated anti-CD25; PerCP-Cy5.5-conjugated anti-CD45; FITC-conjugated anti-TCRβ; APC-conjugated anti-IFN-γ; APC-conjugated anti-FoxP3; Brilliant-violet-conjugated anti-CD45. Cells were analyzed on an LSRII cytometer (BD Biosciences) using FlowJo software. In each experiment, relevant negative control groups, positive controls, and single stained samples for each tissue were used to identify the populations of interest and to exclude other populations.

Setting [2] is: AD-Tg/DTR+ mice, 3 weeks after last DTx injection.

“Also recorded” adds a separate entry of the source.

Take `CC1=C(/C=C/C(C)=C/C=C/C(C)=C/C(=O)O)C(C)(C)CCC1` [ATRA, All-trans retinoic acid]: the “cognitive performance (spatial memory) in the RAWM” value with 5XFAD AD-Tg mice (ATRA-treated vs vehicle-treated AD-Tg mice, 3 weeks after treatment) is recorded as “worsening of the spatial memory deficits”.
With Diphtheria toxin [DTx], in assay [1] (setting [2]), the “Foxp3+ Tregs among CD4+ T cells in the brain” value is “marked enrichment”; the “numbers of CD45high/CD11bhigh mo-MΦ and CD4+ T cells in brain parenchyma” value was “increased numbers; also recorded: elevated numbers”.
Take Glatiramer acetate [GA]: the “cognitive performance (spatial memory) by the RAWM task” value in the assay on 5XFAD AD-Tg mice (daily-GA 100 μg s.c. for 1 month, 7-month old 5XFAD AD-Tg mice) was “either no beneficial effect on spatial memory, or a tendency towards a worsening effect”. Further, in the assay on 5XFAD AD-Tg mice (weekly-GA, 5XFAD AD-Tg mice), the “duration of improved cognitive performance after the treatment” value was “up to 2 months”. The “cognitive performance by the RAWM task” value in the assay on 5XFAD AD-Tg mice (weekly-GA, 7-month old 5XFAD AD-Tg mice) was “beneficial effect”. Also, the “numbers of CD11bhighCD45high-expressing cells in the hippocampus” value in assay [1] (weekly-GA, AD-Tg non-chimeric mice, 2nd week of regimen) was “increased numbers”.

The record behind these values is patent publication US10961309B2, “Reducing systemic regulatory T cell levels or activity for treatment of disease and injury of the CNS” (Yeda Research and Development Co. Ltd, priority 2014, dated 2021).
